{"source": "paper PMC1084349", "about": "(BMC Neuroscience, 2005)", "note": "Where a SMILES comes first, the peptide text is derived from it.", "data": [{"target": "T1, rTas1r2-rTas1r3 V738A (Rattus norvegicus, UniProt Q923K1+Q9Z0R7, V738A)", "T1 construct": "expressed in transfected cells; host or cells: HEK293T cells stably expressing Gα16gust44", "T1 sequence (Q9Z0R7 20-843)": "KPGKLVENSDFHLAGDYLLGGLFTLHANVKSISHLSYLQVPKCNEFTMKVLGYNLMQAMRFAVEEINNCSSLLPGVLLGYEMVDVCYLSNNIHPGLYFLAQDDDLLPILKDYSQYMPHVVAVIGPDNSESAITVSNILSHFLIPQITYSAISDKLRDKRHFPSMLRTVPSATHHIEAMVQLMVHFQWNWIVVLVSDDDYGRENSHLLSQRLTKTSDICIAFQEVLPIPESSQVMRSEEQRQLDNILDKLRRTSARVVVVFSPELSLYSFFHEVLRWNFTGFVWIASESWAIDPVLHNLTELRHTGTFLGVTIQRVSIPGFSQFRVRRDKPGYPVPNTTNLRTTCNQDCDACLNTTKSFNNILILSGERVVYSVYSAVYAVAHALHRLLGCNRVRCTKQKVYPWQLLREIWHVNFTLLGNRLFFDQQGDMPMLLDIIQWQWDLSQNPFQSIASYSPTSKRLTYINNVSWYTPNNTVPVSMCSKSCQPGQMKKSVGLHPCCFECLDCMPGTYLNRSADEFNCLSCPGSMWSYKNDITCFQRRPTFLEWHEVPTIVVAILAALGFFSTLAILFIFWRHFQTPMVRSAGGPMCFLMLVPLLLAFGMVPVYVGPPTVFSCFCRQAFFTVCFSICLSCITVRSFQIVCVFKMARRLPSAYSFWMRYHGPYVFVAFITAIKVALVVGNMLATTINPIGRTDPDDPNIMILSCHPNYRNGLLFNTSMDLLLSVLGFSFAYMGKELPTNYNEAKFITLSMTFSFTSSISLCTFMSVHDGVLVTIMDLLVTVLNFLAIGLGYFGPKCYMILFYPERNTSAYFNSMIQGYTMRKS", "T1 sequence (Q923K1 21-858 V738A)": "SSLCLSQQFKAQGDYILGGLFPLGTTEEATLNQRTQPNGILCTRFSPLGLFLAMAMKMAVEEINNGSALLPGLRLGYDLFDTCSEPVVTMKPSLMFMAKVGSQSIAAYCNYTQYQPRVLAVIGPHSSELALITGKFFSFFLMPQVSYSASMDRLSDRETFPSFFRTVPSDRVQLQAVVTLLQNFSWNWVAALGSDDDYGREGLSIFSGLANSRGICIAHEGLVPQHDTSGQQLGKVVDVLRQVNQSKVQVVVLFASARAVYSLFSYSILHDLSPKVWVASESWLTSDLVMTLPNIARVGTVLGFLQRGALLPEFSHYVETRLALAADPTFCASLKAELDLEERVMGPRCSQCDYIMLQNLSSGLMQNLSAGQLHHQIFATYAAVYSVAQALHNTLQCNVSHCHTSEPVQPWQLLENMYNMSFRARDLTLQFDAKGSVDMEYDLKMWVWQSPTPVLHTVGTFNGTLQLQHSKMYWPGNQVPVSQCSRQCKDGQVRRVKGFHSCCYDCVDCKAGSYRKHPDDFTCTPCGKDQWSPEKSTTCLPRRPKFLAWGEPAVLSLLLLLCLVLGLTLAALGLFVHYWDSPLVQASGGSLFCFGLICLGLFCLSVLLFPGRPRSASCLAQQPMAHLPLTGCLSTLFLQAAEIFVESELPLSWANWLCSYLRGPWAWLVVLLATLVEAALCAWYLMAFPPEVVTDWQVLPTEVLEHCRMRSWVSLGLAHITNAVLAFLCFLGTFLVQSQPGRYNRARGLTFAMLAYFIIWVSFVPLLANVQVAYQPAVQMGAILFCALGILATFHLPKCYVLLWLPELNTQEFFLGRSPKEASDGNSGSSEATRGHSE", "assay": "Calcium mobilization (FLIPR), rTas1r3-V738A variant", "assay_type": "cell-based", "conditions": "asp 15 mM; cyc 30 mM; neo 0.1 mM; sac 10 mM; suc 100 mM; stev 1 mM", "description": "Receptor mutants were generated by site directed mutagenesis according to the QuikChange protocol (Stratagene). The forward and reverse complement primers contained the desired mutations and annealed to the same sequence on opposite strands of the plasmids. The following rTas1r3 receptor variants were generated: m1: S576L; m2: R632Q, S635P, S637Q; m3: M644L A645S; m4: A702T; m5: Q717H, V718M, V723A, E725V; m6: L735F, V738A, I740A. m6/1: V738A, I740A, m6/2: L735F, I740A, m6/3: L735F, V738A. m7: A793V, Y794L, Q795R. Subsequently a rTas1r3-V738A variant was generated. All constructs were checked by sequencing.\nThe cDNAs were transiently transfected into HEK293T cells stably expressing the chimeric G-protein subunit Gα16gust44 [20] using Lipofectamine 2000 (Invitrogen) according to the manufacturer's protocol. 3–4 hours after transfection, DMEM was replaced by low-glucose DMEM supplemented with GlutaMAX and 10% dialyzed FBS (Invitrogen). 22–44 hours later, cells were loaded for 1 hour with the calcium sensitive dye Fluo4-AM (2 μg/ml in DMEM, Molecular Probes). […] Calcium mobilization was monitored by an automated fluorometric imaging plate reader (FLIPR, Molecular Devices). Ligands (Sigma-Aldrich, Merck) were dissolved in C1 solution. All data were collected from at least two independent experiments carried out in triplicate. The obtained calcium signals were corrected for the response of mock transfected cells and normalized to the fluorescence of cells prior to the stimulus using ΔF/F=(F-F0)/F0.\n(a, b) Responses of cells co-transfected with rTas1r2 and rTas1r3 mutants to stimulation with 1 mM stevioside. […] All sweeteners were used at concentrations which were close to the maximal obtainable signal.", "values": [{"smiles": "COC(=O)[C@H](Cc1ccccc1)NC(=O)[C@@H](N)CC(=O)O", "note": "[aspartame] (HELM PEPTIDE1{D.F.[CO[*:1]]}$$$$V2.0)", "activation of receptor (calcium response)": "not"}, {"smiles": "C=C1C[C@@]23CC[C@H]4[C@@](C)(CCC[C@@]4(C)C(=O)O[C@@H]4O[C@H](CO)[C@@H](O)[C@H](O)[C@H]4O)[C@@H]2CC[C@]1(O[C@@H]1O[C@H](CO)[C@@H](O)[C@H](O)[C@H]1O[C@@H]1O[C@H](CO)[C@@H](O)[C@H](O)[C@H]1O)C3", "note": "[stevioside]", "activation of receptor (calcium response)": "activated"}, {"smiles": "O=S(=O)(O)NC1CCCCC1", "note": "[cyclamate]", "activation of receptor (calcium response)": "not"}, {"smiles": "OC[C@H]1O[C@@](CO)(O[C@H]2O[C@H](CO)[C@@H](O)[C@H](O)[C@H]2O)[C@@H](O)[C@@H]1O", "note": "[sucrose]", "activation of receptor (calcium response)": "activated"}, {"smiles": "COc1ccc(CCC(=O)c2c(O)cc(O[C@@H]3O[C@H](CO)[C@@H](O)[C@H](O)[C@H]3O[C@@H]3O[C@@H](C)[C@H](O)[C@@H](O)[C@H]3O)cc2O)cc1O", "note": "[neohesperidine dihydrochalcone]", "activation of receptor (calcium response)": "not"}]}]}
